# Results taken from patent publication US8822407B2, “Preparation of conjugates comprising adenine derivatives and allergenic proteins and their use for specific immunotherapy of allengenic diseases” (Universita' Degli Studi di Firenze, priority 2010, dated 2014).
# T1: human TLR7 (Homo sapiens, UniProt Q9NYK1)
# T1 construct: expressed in transfected cells; host or cells: HEK293 (transient Nucleofection, Amaxa)
# T1 sequence (Q9NYK1 27-1049): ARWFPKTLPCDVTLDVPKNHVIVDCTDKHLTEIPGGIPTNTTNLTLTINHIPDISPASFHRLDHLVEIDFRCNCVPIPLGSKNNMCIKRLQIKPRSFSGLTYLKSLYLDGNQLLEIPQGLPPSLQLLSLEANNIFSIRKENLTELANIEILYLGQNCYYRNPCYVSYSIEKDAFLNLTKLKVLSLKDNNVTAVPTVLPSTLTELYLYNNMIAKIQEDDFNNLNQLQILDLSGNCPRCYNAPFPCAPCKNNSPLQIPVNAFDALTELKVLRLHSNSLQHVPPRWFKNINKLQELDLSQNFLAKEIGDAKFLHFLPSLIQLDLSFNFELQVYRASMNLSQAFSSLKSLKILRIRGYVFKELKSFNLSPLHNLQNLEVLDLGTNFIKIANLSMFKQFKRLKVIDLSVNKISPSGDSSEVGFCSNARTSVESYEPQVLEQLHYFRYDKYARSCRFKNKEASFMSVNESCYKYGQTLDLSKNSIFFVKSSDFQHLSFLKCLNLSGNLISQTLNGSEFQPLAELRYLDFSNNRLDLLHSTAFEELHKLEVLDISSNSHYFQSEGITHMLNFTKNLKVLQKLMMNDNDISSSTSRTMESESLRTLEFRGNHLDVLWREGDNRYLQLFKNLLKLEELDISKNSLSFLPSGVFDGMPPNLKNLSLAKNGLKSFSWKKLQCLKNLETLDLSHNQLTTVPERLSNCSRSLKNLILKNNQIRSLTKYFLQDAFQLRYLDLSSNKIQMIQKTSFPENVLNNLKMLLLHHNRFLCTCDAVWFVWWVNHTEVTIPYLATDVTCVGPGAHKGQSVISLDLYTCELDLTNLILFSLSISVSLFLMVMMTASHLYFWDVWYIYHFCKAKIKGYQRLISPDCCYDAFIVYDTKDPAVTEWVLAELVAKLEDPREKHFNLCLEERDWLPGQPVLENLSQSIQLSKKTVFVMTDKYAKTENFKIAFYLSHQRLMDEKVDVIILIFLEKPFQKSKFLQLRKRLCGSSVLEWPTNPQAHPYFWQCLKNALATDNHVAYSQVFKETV
# B1: nDer p2: purified natural allergen Der p2, major allergen from the house dust mite Dermatophagoides pteronyssinus (protein, UniProt P49278 18-146, looked up)
# Mite group 2 allergen Der p 2: DQVDVKDCANHEIKKVLVPGCHGSEPCIIHRGKPFQLEAVFEANQNTKTAKIEIKASIDGLEVDVPGIDPNACHYMKCPLVKGQQYDIKYTWNVPKIAPKSENVVVTVKVMGDDGVLACAIATHAKIRD
# modifications: natural purified
# notes: purified natural allergen Der p2, major allergen from the house dust mite Dermatophagoides pteronyssinus
# Columns and labels:
# purified BDCA4+ cells = assay: Cytokine production by purified BDCA4+ cells (plasmacytoid dendritic cells), ELISA; type: cell-based, human
# Procedure: The preparation of purified BDCA4+ cells has been obtained in a similar way starting from MNC of buffy coats of the same 14 healthy donors. […] By positive selection 5×10^6 plasmacytoid dendritic cells (PDCs) are recovered, extensively washed with calcium and magnesium-free sterile PBS and seeded in complete medium plus 10% foetal calf serum in 24-flat bottomed plates at the concentration 1×10^6/ml. […] The plates are incubated for 36 hrs at 37° C. in 5% CO2 humidified atmosphere and the supernatants are collected after centrifugation at 1200 rpm, aliquoted and then stored at −20° C. up to the assay. […]
# (§1) For the determination of cytokines and chemokines of the innate immunity, commercial ELISAs have been used: IL-12p40 (Cytoscreen, Biosource Int, Camarillo, Calif.), IFN-alfa (Cytoscreen), TNF-alfa (Cytoscreen), IL-10 (Pharmingen), IL-6 and CXCL10 (R&D System). 100 μl/well of single supernatants are incubated in flat bottomed plates as specified by the productors and the amounts of the single cytokines are expressed as pg/ml on the basis of a reference curve by using recombinant cytokines.
# purified CD14+ cells = assay: Cytokine production by purified CD14+ cells (ELISA of supernatants, 36 hrs); type: cell-based, human
# Procedure: Circulating mononuclear cells (MNC) are isolated by density gradient (Ficoll-Hypaque) using buffy coats from 14 normal donors (Servizio Immunotrasfusionale e terapie cellulari, Azienda Ospedaliera Universitaria A. Meyer, Firenze). 200×10^6 MNC are separated by the use of a commercial kit (CD14 isolation kit, Miltenyi) by the addition of 400 μl anti-CD14 monoclonal antibody bound to iron beads followed by isolation on magnetic columns (LS column). 50×10^6 monocytes are recovered by positive selection and are extensively washed with calcium and magnesium-free sterile PBS and then seeded in complete medium plus 10% foetal calf serum in 24 flat bottomed plates at the concentration of 1×10^6/ml. […] The plates are incubated for 36 hrs at 37° C. in 5% CO2 humidified atmosphere and the supernatants are collected after centrifugation at 1200 rpm, aliquoted and then stored at −20° C. up to the assay. […]
# as §1
# human TLR7 = target: T1, human TLR7; assay: TLR7 activation, NF-kB luciferase reporter in transfected HEK293 cells; type: cell-based; settings: human TLR7-encoding plasmid
# Procedure: HEK293 cells are detached by trypsin from the plastic surface of the culture bottle, extensively washed with calcium and magnesium-free PBS, counted and adjusted at the concentration 1×10^6 cells/tube in polypropylene V-bottomed tubes. After the final wash, the cells are pelleted and 100 μl transfection buffer (Amaxa) is added together with […], TLR7, TLR8 or TLR9-encoding and ELAM-1 promoter NF-kB luciferase reporter plasmids. The mixture thus obtained is transferred in special cuvettes and transient transfection is obtained in a special apparatus which is able to directly introduce genetic material into the nucleus (Nucleofection®, Amaxa GmbH). The cells are then recovered and cultured at 1×10^5/ml in 48-flat bottomed plates in E-MEM medium plus 5% foetal calf serum for 18 hrs. […] Finally the luciferase activity is measured in the cellular lysates by a commercial kit (Promega).
# [1] = Table C, Donor #1, dose 0.085 μg/ml
# [2] = Table C, Donor #1, dose 0.6 μg/ml
# [3] = Table C, Donor #1, dose 2.5 μg/ml
# [4] = Table C, Donor #1, dose 10 μg/ml
# [5] = Table C, Donor #2, dose 0.085 μg/ml
# [6] = Table C, Donor #2, dose 0.6 μg/ml
# [7] = Table C, Donor #2, dose 2.5 μg/ml
# [8] = Table C, Donor #2, dose 10 μg/ml
# [9] = Table A, Donor #1, dose 0.085 μg/ml
# [10] = Table A, Donor #1, dose 0.6 μg/ml
# [11] = Table A, Donor #1, dose 2.5 μg/ml
# [12] = Table A, Donor #1, dose 10 μg/ml
# [13] = Table A, Donor #2, dose 0.085 μg/ml
# [14] = Table A, Donor #2, dose 0.6 μg/ml
# [15] = Table A, Donor #2, dose 2.5 μg/ml
# [16] = Table A, Donor #2, dose 10 μg/ml
# [17] = Table F, Donor #1, dose 10 μg/ml
# [18] = Table F, Donor #2, dose 10 μg/ml
# [19] = Table E, Donor #1, dose 10 μg/ml
# [20] = Table E, Donor #2, dose 10 μg/ml
molecule,measurement,setting,value
"Nc1nc(SCCCC(=O)ON2C(=O)CCC2=O)nc2c1nc(O)n2Cc1ccccc1 [SA-26E, 4-(6-Amino-9-benzyl-8-hydroxy-9H-purin-2-ylsulfanyl)-butyric acid 2,5-dioxo-pyrrolidin-1-yl ester]",cytokine production from BDCA4+ cells (in words),purified BDCA4+ cells; 0.085 μg/ml concentration,completely inactive
same,IFN-alfa production,purified BDCA4+ cells; [1],0 pg/mL
same,IL-6 production,purified BDCA4+ cells; [1],0 pg/mL
same,TNF-alfa production,purified BDCA4+ cells; [1],0 pg/mL
same,IFN-alfa production,purified BDCA4+ cells; [2],179 pg/mL
same,IL-6 production,purified BDCA4+ cells; [2],0 pg/mL
same,IL-10 production,purified BDCA4+ cells; [2],0 pg/mL
same,TNF-alfa production,purified BDCA4+ cells; [2],183 pg/mL
same,IFN-alfa production,purified BDCA4+ cells; [3],179 pg/mL
same,IL-6 production,purified BDCA4+ cells; [3],0 pg/mL
same,IL-10 production,purified BDCA4+ cells; [3],0 pg/mL
same,TNF-alfa production,purified BDCA4+ cells; [3],252 pg/mL
same,IFN-alfa production,purified BDCA4+ cells; [4],486 pg/mL
same,IL-6 production,purified BDCA4+ cells; [4],675 pg/mL
same,IL-10 production,purified BDCA4+ cells; [4],896 pg/mL
same,TNF-alfa production,purified BDCA4+ cells; [4],858 pg/mL
same,IFN-alfa production,purified BDCA4+ cells; [5],0 pg/mL
same,IL-6 production,purified BDCA4+ cells; [5],0 pg/mL
same,IL-10 production,purified BDCA4+ cells; [5],0 pg/mL
same,TNF-alfa production,purified BDCA4+ cells; [5],0 pg/mL
same,IFN-alfa production,purified BDCA4+ cells; [6],669 pg/mL
same,IL-6 production,purified BDCA4+ cells; [6],0 pg/mL
same,IL-10 production,purified BDCA4+ cells; [6],0 pg/mL
same,TNF-alfa production,purified BDCA4+ cells; [6],520 pg/mL
same,IFN-alfa production,purified BDCA4+ cells; [7],2014 pg/mL
same,IL-6 production,purified BDCA4+ cells; [7],760 pg/mL
same,TNF-alfa production,purified BDCA4+ cells; [7],1157 pg/mL
same,IFN-alfa production,purified BDCA4+ cells; [8],3589 pg/mL
same,IL-6 production,purified BDCA4+ cells; [8],1439 pg/mL
same,IL-10 production,purified BDCA4+ cells; [8],750 pg/mL
same,TNF-alfa production,purified BDCA4+ cells; [8],3405 pg/mL
same,cytokine production from BDCA4+ cells (in words),purified BDCA4+ cells; text to Tables C and D,intermediate effect
same,cytokine production from purified CD14+ cells (in words),"purified CD14+ cells; 0.085 μg/ml soluble SA-26E (amount present in Conj-5, -6, -7 and -8)",not able to stimulate the production of any cytokine
same,IL-6 production,purified CD14+ cells; [9],0 pg/mL
same,IL-10 production,purified CD14+ cells; [9],0 pg/mL
same,IL-12p40 production,purified CD14+ cells; [9],0 pg/mL
same,TNF-alfa production,purified CD14+ cells; [9],0 pg/mL
same,IL-6 production,purified CD14+ cells; [10],0 pg/mL
same,IL-10 production,purified CD14+ cells; [10],124 pg/mL
same,IL-12p40 production,purified CD14+ cells; [10],569 pg/mL
same,TNF-alfa production,purified CD14+ cells; [10],345 pg/mL
same,IL-6 production,purified CD14+ cells; [11],11 pg/mL
same,IL-10 production,purified CD14+ cells; [11],618 pg/mL
same,IL-12p40 production,purified CD14+ cells; [11],863 pg/mL
same,IL-6 production,purified CD14+ cells; [12],2930 pg/mL
same,IL-10 production,purified CD14+ cells; [12],609 pg/mL
same,IL-12p40 production,purified CD14+ cells; [12],2500 pg/mL
same,TNF-alfa production,purified CD14+ cells; [12],2123 pg/mL
same,IL-6 production,purified CD14+ cells; [13],0 pg/mL
same,IL-10 production,purified CD14+ cells; [13],0 pg/mL
same,IL-12p40 production,purified CD14+ cells; [13],0 pg/mL
same,TNF-alfa production,purified CD14+ cells; [13],0 pg/mL
same,IL-6 production,purified CD14+ cells; [14],0 pg/mL
same,IL-10 production,purified CD14+ cells; [14],0 pg/mL
same,IL-12p40 production,purified CD14+ cells; [14],785 pg/mL
same,TNF-alfa production,purified CD14+ cells; [14],466 pg/mL
same,IL-6 production,purified CD14+ cells; [15],4 pg/mL
same,IL-12p40 production,purified CD14+ cells; [15],2464 pg/mL
same,TNF-alfa production,purified CD14+ cells; [15],1267 pg/mL
same,IL-6 production,purified CD14+ cells; [16],163 pg/mL
same,IL-10 production,purified CD14+ cells; [16],584 pg/mL
same,IL-12p40 production,purified CD14+ cells; [16],4800 pg/mL
same,TNF-alfa production,purified CD14+ cells; [16],3730 pg/mL
same,cytokine production from purified CD14+ cells (in words),purified CD14+ cells; text to Tables A and B,intermediate effect
same,TLR7 activation (NF-κB luciferase) in transfected HEK293 cells,human TLR7,completely inactive
B1,IFN-alfa production (mean ± SE),"purified BDCA4+ cells; Table D, dose 10 μg/ml",0.07 ± 0.06 ng/mL
same,IL-6 production (mean ± SE),"purified BDCA4+ cells; Table D, dose 10 μg/ml",0 ± 0 ng/mL
same,IL-10 production (mean ± SE),"purified BDCA4+ cells; Table D, dose 10 μg/ml",0 ± 0 ng/mL
same,TNF-alfa production (mean ± SE),"purified BDCA4+ cells; Table D, dose 10 μg/ml",0.03 ± 0.02 ng/mL
same,IFN-alfa production,purified BDCA4+ cells; [17],0 pg/mL
same,IL-6 production,purified BDCA4+ cells; [17],0 pg/mL
same,IL-10 production,purified BDCA4+ cells; [17],0 pg/mL
same,TNF-alfa production,purified BDCA4+ cells; [17],0 pg/mL
same,IFN-alfa production,purified BDCA4+ cells; [18],0 pg/mL
same,IL-6 production,purified BDCA4+ cells; [18],0 pg/mL
same,IL-10 production,purified BDCA4+ cells; [18],0 pg/mL
same,TNF-alfa production,purified BDCA4+ cells; [18],0 pg/mL
same,IL-6 production (mean ± SE),"purified CD14+ cells; Table B, dose 10 μg/ml",0 ± 0 ng/mL
same,IL-10 production (mean ± SE),"purified CD14+ cells; Table B, dose 10 μg/ml",0.4 ± 0.4 ng/mL
same,IL-12p40 production (mean ± SE),"purified CD14+ cells; Table B, dose 10 μg/ml",0 ± 0 ng/mL
same,TNF-alfa production (mean ± SE),"purified CD14+ cells; Table B, dose 10 μg/ml",0.05 ± 0.06 ng/mL
same,IL-6 production,purified CD14+ cells; [19],0 pg/mL
same,IL-10 production,purified CD14+ cells; [19],0 pg/mL
same,IL-12p40 production,purified CD14+ cells; [19],0 pg/mL
same,TNF-alfa production,purified CD14+ cells; [19],218 pg/mL
same,IL-6 production,purified CD14+ cells; [20],0 pg/mL
same,IL-10 production,purified CD14+ cells; [20],0 pg/mL
same,IL-12p40 production,purified CD14+ cells; [20],0 pg/mL
same,TNF-alfa production,purified CD14+ cells; [20],0 pg/mL
same,cytokine production from purified CD14+ cells (in words),purified CD14+ cells; text to Tables A and B,essentially unable to induce the production of valuable cytokines
same,TLR7 activation (NF-κB luciferase) in transfected HEK293 cells,human TLR7,lack any activity
